Measurements reported in patent US20160030364A1, “Therapeutic Compositions and Uses Thereof” (MANUKA HEALTH NEW ZEALAND LIMITED, priority 2013, published 2016).

What was measured:
Assay type in all cases: cell-based
[1] = system: human colorectal adenocarcinoma cells (DLD-1); assay: MTT anti-proliferative assay, DLD-1 (Examples 3-12); conditions: 200 μg/ml; for % stim. / Mean OD (570 nm) / % inhibition: 48 hours; for inhibition at 200 µg/mL: Homo sapiens, DLD-1, 48 h
Method: (§1) 5-phenylpenta-2,4-dienoic acid was assessed for its ability to modulate the viability and proliferation of human colorectal adenocarcinoma cells (DLD-1); human colon cancer cell line (HCT-116); human gastric carcinoma cell line (NCI-N87); and human oesophageal squamous cell carcinoma cell line (KYSE-30) as assessed by the MTT assay. The positive control, 5-fluorouracil (5-FU) was included at three concentrations; in addition to an unsupplemented cell control as a negative control in the study. The 5-phenylpenta-2,4-dienoic acid was a genuine standard with chemical structure confirmed by NMR and MS.
(§2) The four human gastrointestinal carcinoma cell lines were revived from cryostorage and cultured in the presence of the test and reference samples. An MTT assay was then performed on the cultures to determine the effect of the samples on the cell viability and proliferation.
(§3) The test sample 5-phenylpenta-2,4-dienoic acid, and all other test samples in Examples 4-12 (except tectochrysln) were Initially dissolved in pure ethanol to a concentration of around 13.35 mg/ml. Tectochrysin was initially dissolved in triethylene glycol mono-methyl ether to the same concentration. Working solutions were then prepared from the stock solutions by dilution to 15% ethanol/Hanks Balanced Salt Solution (ETOH)/HBSS to a concentration of 2 mg/mL solids. In the assay the final concentration of the samples was 200 μg/ml with a final EtOH concentration of 1.5%. Final concentrations of test compounds and propolis prepared as above are as noted in Example 3.
(§4) • 1. Human colorectal adenocarcinoma cells (ATCC CCI-221, DLD-1)(ATCC, Bethesda, Md., USA) • 2. Human gastric carcinoma cells (ATCC CRL-5822, NCI-N87)(ATCC, Bethesda, Md., USA) • 3. Human oesophageal squamous cell carcinoma (ECACC, KYSE-30)(Sigma Aldrich, Auckland, NZ) • 4. Human colon carcinoma cells (ECACC HCT-116)(Sigma Aldrich, Auckland, NZ) • 5. Penicillin-streptomycin solution: 10000 units/ml penicillin, 10 mg/ml streptomycin in 0.9% NaCl (Sigma Cat #P-0781). Stored at −20° C. • 6. For DLD-1 cells: DMEM culture medium (Invitrogen Cat #12100-046). Stored at 4° C. • 7. For NCI-N87 cells: RPMI-1640 medium modified to contain 2 mM L-glutamine, 10 mM HEPES, 1 mM sodium pyruvate, 4500 mg/L glucose, and 1500 mg/L sodium bicarbonate (Sigma R6504). Stored at 4° C. • 8. For KYSE-410 cells: RPMI-1640 medium modified to contain 2 mM L-glutamine (Sigma R6504). Stored at 4° C. • 9. For HCT-116 cells: McCoy's 5A medium modified to contain 2 mM L-glutamine (Sigma M48792). Stored at 4° C. • 10. Trypsin-EDTA solution: 0.25% Trypsin/EDTA, Invitrogen Cat#15400054 (×10 in stock). • 11. Phosphate buffered saline (PBS) (Prepared by TBL). • 12. Hanks Balanced Salt Solution (HBSS). (GIBCO Cat No. 14185-052). Stored at 4° C. • 13. Foetal Bovine Serum (GIBCO Cat #10091-148). Stored at −20° C. • 14. MTT Reagent: 100 mg/vial, (SIGMA Cat. No. M-2128) dissolved in PBS at 10 mg/ml and stored at −20° C. 5 mg/ml MTT solution will be prepared in PBS and stored at 4° C. as working solution. • 15. MTT lysis buffer: 10% sodium dodecyl sulphate (SDS)/45% Dimethyl Formamide (20 g SDS will be dissolved in 100 ml of double-distilled water (DDW), and 90 ml of Dimethyl Formamide will be added to the SDS solution). The pH will be adjusted to 4.7 by glacial acetic acid, and DDW added up to a final volume of 200 ml. • 16. 5-Fluorouracil (5-FU), (Sigma Cat. No. F-6627). Three working solutions will be prepared at 19.5 μg/ml. 6.5 μg/ml and 1.95 μg/ml dissolved in 15% Ethanol/HBSS. Final concentrations will be 1.95 μg/ml (15 μM), 0.65 μg/ml (5 μM) and 0.195 μg/ml (1.5 μM).
(§5) The medium for the propagation of the each of the cells lines is given above. Each medium was prepared following the ATCC/ECACC instructions and supplemented with penicillin-streptomycin solution (10 ml per litre). FBS (at 10%) was added just before use.
• 1. […]

[2] = system: human colon cancer cell line (HCT-116); assay: MTT anti-proliferative assay, HCT-116 (Examples 3-12); conditions: 200 μg/ml; for % inhibition / % stim. / Mean OD (570 nm): 48 hours; for inhibition at 200 µg/mL: Homo sapiens, HCT-116, 48 h
Method: as §1, §2, §3, §4, §5
• 1. […]

[3] = system: human gastric carcinoma cell line (NCI-N87); assay: MTT anti-proliferative assay, NCI-N87 (Examples 3-12); conditions: 200 μg/ml; for % stim. / Mean OD (570 nm) / % inhibition: 48 hours; for inhibition at 200 µg/mL: Homo sapiens, NCI-N87, 48 h
Method: as §1, §2, §3, §4, §5
• 1. […]

[4] = system: human oesophageal squamous cell carcinoma cell line (KYSE-30); assay: MTT anti-proliferative assay, KYSE-30 (Examples 3-13); conditions: Examples 3-12, 200 μg/ml, 48 hours; for inhibition at 200 µg/mL: Homo sapiens, KYSE-30, 48 h
Method: as §1, §2, §3, §4, §5
• 1. […]

[5] = listed as Pinobanksin 3-O-acetate

Compound	% stim. [1] [%]	Mean OD (570 nm) [1]	inhibition at 200 µg/mL [1] [%]	% inhibition [2] [%]	% stim. [2] [%]	Mean OD (570 nm) [2]	inhibition at 200 µg/mL [2] [%]	% stim. [3] [%]	Mean OD (570 nm) [3]	inhibition at 200 µg/mL [3] [%]	% inhibition [4] [%]	% stim. [4] [%]	Mean OD (570 nm) [4]	inhibition at 200 µg/mL [4] [%]	% inhibition [1] [%]	% inhibition [3] [%]	% inhibition [1, 5] [%]	% inhibition [2, 5] [%]	% inhibition [3, 5] [%]	% inhibition [4, 5] [%]
O=C(O)C=CC=Cc1ccccc1 [5-phenylpenta-2,4-dienoic acid]	0	0.2329	43.5	36.43	0	0.3232	36.4	0	0.2537	42.6	37.55	0	0.3758	37.6	–	–	–	–	–	–
COc1ccc(/C=C/C(=O)OCc2ccccc2)cc1O [benzyl isoferulate]	0	0.0379	90.8	94.81	0	0.0264	94.8	0	0.0885	80	95.82	0	0.0251	95.8	90.81	79.95	–	–	–	–
CC(=O)O[C@H]1C(=O)c2c(O)cc(O)cc2O[C@@H]1c1ccccc1 [pinobanksin 3-O-acetate, pinobanksin-3-acetate]	0	–	–	90.61	0	0.0477	–	0	0.2287	–	68.01	0	–	–	–	48.22	75.4	90.6	48.2	68.0
COc1cc(O)c(C(=O)/C=C/c2ccccc2)c(O)c1 [pinostrobin chalcone]	0	0.069	–	51.2	0	0.2482	–	5.5	0.4659	–	45.0	0	0.3312	–	83.3	–	–	–	–	–
